According to ChEMBL document CHEMBL1201862, “PubChem BioAssay data set” (2004):
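Test compounds were applied to cells in 96-well plates for 48 hours at 5 doses. Abbreviation: GI50, concentration required for 50% inhibition of growth.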 Activity calls are given as the source filed them. Rule as the data show it: active = GI50 up to about 1.1 µM and inactive = higher.

What was measured:
Assay in all cases: NCI-60 cell line screen, 48 h
A498 = test system: A498
ACHN = test system: ACHN
CCRF-CEM = test system: CCRF-CEM
HCT-116 = test system: HCT-116
HOP-92 = test system: HOP-92
HT-29 = test system: HT-29
IGROV-1 = test system: IGROV-1
K562 = test system: K562
MCF7 = test system: MCF7
NCI-H23 = test system: NCI-H23
OVCAR-3 = test system: OVCAR-3
OVCAR-5 = test system: OVCAR-5
RXF 393 = test system: RXF 393
SF-268 = test system: SF-268
SNB-75 = test system: SNB-75
SW-620 = test system: SW-620
TK-10 = test system: TK-10
U-251 = test system: U-251
UO-31 = test system: UO-31
T47D = test system: T47D

SMILES | GI50 (A498) | GI50 (ACHN) | GI50 (CCRF-CEM) | GI50 (HCT-116) | GI50 (HOP-92) | GI50 (HT-29) | GI50 (IGROV-1) | GI50 (K562) | GI50 (MCF7) | GI50 (NCI-H23) | GI50 (OVCAR-3) | GI50 (OVCAR-5) | GI50 (RXF 393) | GI50 (SF-268) | GI50 (SNB-75) | GI50 (SW-620) | GI50 (TK-10) | GI50 (U-251) | GI50 (UO-31) | GI50 (T47D)
C1=N\CCN2CCN(CC/N=C\c3ccccc3OCc3cccc(n3)COc3ccccc3/1)CC2 | 40.9 µM (inactive) | 9.71 µM (inactive) | 3.39 µM (inactive) | 2.61 µM (inactive) | 3.89 µM (inactive) | 8.2 µM (inactive) | 11.2 µM (inactive) | 2.48 µM (inactive) | 1.52 µM (inactive) | 14.6 µM (inactive) | 1.3 µM (inactive) | 9.18 µM (inactive) | 0.508 µM (active) | 2.15 µM (inactive) | 9.66 µM (inactive) | 2.35 µM (inactive) | 8.3 µM (inactive) | 2.26 µM (inactive) | 13.8 µM (inactive) | –
CCC1C(C(=O)Nc2ccccc2C)=C(C)NC(C)=C1c1ccccc1C (stereo unspecified) | > 100 µM (inactive) | > 100 µM (inactive) | 55.1 µM (inactive) | > 48.6 µM (inactive) | > 100 µM (inactive) | > 100 µM (inactive) | > 100 µM (inactive) | 80 µM (inactive) | – | > 100 µM (inactive) | > 100 µM (inactive) | > 100 µM (inactive) | > 100 µM (inactive) | > 40.6 µM (inactive) | > 100 µM (inactive) | > 43.1 µM (inactive) | > 100 µM (inactive) | > 100 µM (inactive) | > 100 µM (inactive) | –
COc1ccc2c[n+](C)c3c4cc(OC)c(OC)cc4ccc3c2c1 | 45.8 µM (inactive) | 64.6 µM (inactive) | 3.37 µM (inactive) | 4.37 µM (inactive) | 10.1 µM (inactive) | 4.1 µM (inactive) | 4.89 µM (inactive) | 2.43 µM (inactive) | – | 3.12 µM (inactive) | 3.9 µM (inactive) | 8.63 µM (inactive) | 15.6 µM (inactive) | 1.79 µM (inactive) | 2.47 µM (inactive) | 2.23 µM (inactive) | 17.8 µM (inactive) | 1.49 µM (inactive) | 44 µM (inactive) | 2.73 µM (inactive)
c1ccc2c(c1)CCc1c-2n(CCN2CCOCC2)c2ccccc12 | – | > 100 µM (inactive) | 21.2 µM (inactive) | > 100 µM (inactive) | 17.8 µM (inactive) | 13.2 µM (inactive) | 11.7 µM (inactive) | 2.14 µM (inactive) | > 100 µM (inactive) | > 100 µM (inactive) | > 100 µM (inactive) | > 100 µM (inactive) | – | > 100 µM (inactive) | – | > 100 µM (inactive) | > 100 µM (inactive) | > 100 µM (inactive) | > 100 µM (inactive) | > 100 µM (inactive)
COC(=O)c1cc(CC2Cc3cc4c(cc3C2=O)CCC4)cc2c1CCC2 (stereo unspecified) | > 100 µM (inactive) | > 100 µM (inactive) | > 100 µM (inactive) | 42.2 µM (inactive) | – | 51.8 µM (inactive) | > 100 µM (inactive) | 39.1 µM (inactive) | 45.8 µM (inactive) | > 100 µM (inactive) | > 100 µM (inactive) | > 100 µM (inactive) | – | > 100 µM (inactive) | 31.3 µM (inactive) | > 100 µM (inactive) | > 100 µM (inactive) | > 100 µM (inactive) | > 100 µM (inactive) | > 100 µM (inactive)
COC(=O)C1C(C(=O)OC)C2(OC)c3ccccc3-c3ccccc3C12 (stereo unspecified) | 44 µM (inactive) | 37.9 µM (inactive) | 24.7 µM (inactive) | 35.4 µM (inactive) | 35 µM (inactive) | 32.2 µM (inactive) | 35 µM (inactive) | 19.8 µM (inactive) | – | 27.6 µM (inactive) | 31 µM (inactive) | > 100 µM (inactive) | 40.9 µM (inactive) | 45.1 µM (inactive) | 38.4 µM (inactive) | 48.1 µM (inactive) | 31.8 µM (inactive) | 42.9 µM (inactive) | 31 µM (inactive) | –
CCSC1=CC2(O)N(CCc3ccc(OC)c(OC)c3)C(=O)CC2(C(=O)OC)CC1=O (stereo unspecified) | > 100 µM (inactive) | 29.9 µM (inactive) | 34 µM (inactive) | 17.9 µM (inactive) | 14.6 µM (inactive) | 18.6 µM (inactive) | 18.2 µM (inactive) | 37.9 µM (inactive) | 19.7 µM (inactive) | 18.4 µM (inactive) | 18.2 µM (inactive) | > 100 µM (inactive) | – | – | – | 25.2 µM (inactive) | 19.5 µM (inactive) | 23.4 µM (inactive) | 18.5 µM (inactive) | 21 µM (inactive)
